IC50, stable disease and ring closure, isolated yield data for 16 compounds are collected here from US10941139B2, “Cryptophycin compounds and conjugates, their preparation and their therapeutic use” (priority 2015, dated 2021).

Values joined by “and” are separate entries in the source; they are usually repeats but may differ in a detail not shown here. Identical values can stand only once. Like-named read-outs stand apart in the source and are kept apart here.

One data set relates to HCT116 cells. As to the kind of experiment: Inhibition of proliferation of the HCT116 cell line by the cryptophycin compounds of formula (I) (14C-thymidine incorporation). The format is cell-based. To be noted: tested as pure β epoxide or α/β epoxide mixture (structural comment). As to the method: (§1) Evaluation of the Inhibition of Proliferation of the HCT116 and MDA-MB-231 Cell Lines by the Cryptophycin Compounds of Formula (I)
(§2) HCT116 and MDA-MB-231 cells in their exponential growth phase were trypsinized and resuspended in their respective culture medium (DMEM/F12 Gibco #21331, 10% FCS Gibco #10500-056, […] Gibco #25030 for the MDA-MB-231 cells; DMEM Gibco #11960, 10% FCS Gibco #10500-056, 2 mM glutamine Gibco #25030 for the HCT116 cells). The cell suspension was seeded in Cytostar 96-well culture plates (GE Healthcare Europe, # RPNQ0163) in the whole culture medium containing serum at a density of 5000 cells/well. After incubation for 4 h, successive dilutions of the cryptophycin compounds were added to the wells at concentrations decreasing from 10^−7 to 10^−12 M (in triplicate for each concentration). The cells were cultured at 37° C. in an atmosphere containing 5% CO2 in the presence of the cryptophycin compounds for 3 d. On the 4th day, 10 μl of a ^14C-thymidine solution (0.1 μCi/well, Perkin Elmer # NEC56825000) were added to each well. The incorporation of ^14C-thymidine was measured 96 h after the start of the experiment with a microbeta radioactivity counter (Perkin Elmer). The data were expressed in the form of a percentage of survival by determining the ratio between the reduced count obtained with the cells treated with the cryptophycin compound and the count obtained with the cells of the control wells (treated with the culture medium alone).
(§3) The inhibitory activity is given by the concentration which inhibits 50% of the activity.
(Incorporation of labelled thymidine or its analogues reports DNA synthesis.)

Another data set has as its system MDA-MB-231 cells. The data set is described as follows: Inhibition of proliferation of the MDA-MB-231 cell line by the cryptophycin compounds of formula (I) (14C-thymidine incorporation). The format is cell-based. To be noted: 14C-thymidine incorporation at 96 h, tested as pure β epoxide or α/β epoxide mixture (structural comment), read-out: IC50 (pM) MDA-MD-231. As to the method:
as §1, §2, §3

The next data set deals with lung cancer. To be noted: two phase II lung cancer trials; cited from earlier work.
The conditions of data set [1]: 16-membered ring.
The mark [2] stands for this setting: Homo sapiens, HCT-116, 14C-thymidine incorporation at 96 h.

As to `COc1ccc(C[C@H]2NC(=O)/C=C/C[C@@H]([C@H](C)[C@H]3O[C@@H]3c3ccccc3)OC(=O)[C@H](CC(C)C)OC(=O)C(C)(C)CNC2=O)cc1Cl` [C-52, cryptophycin C-52, reference compound], the IC50 is 76 pM in the data set with HCT116 cells (14C-thymidine incorporation at 96 h) and 90 pM with MDA-MB-231 cells. The stable disease with lung cancer was 30-40%.

On to `COc1ccc(C[C@H]2NC(=O)/C=C/C[C@@H]([C@H](C)[C@H]3O[C@@H]3c3ccc(CN)cc3)OC(=O)[C@H](CC(C)C)NC(=O)C(C)(C)CNC2=O)cc1Cl` [Ex. 1, (3S,10R,16S,E)-16-((S)-1-((2R,3R)-3-(4-(aminomethyl)phenyl)oxiran-2-yl)ethyl)-10-(3-chloro-4-methoxybenzyl)-3-isobutyl-6,6-dimethyl-1-oxa-4,8,11-triazacyclohexadec-13-ene-2,5,9,12-tetraone], for which the IC50 in the data set with HCT116 cells (setting [2]) was determined as 163 pM; with MDA-MB-231 cells (Homo sapiens, MDA-MB-231), 250 pM.

Consider `COc1ccc(C[C@H]2NC(=O)/C=C/C[C@@H]([C@H](C)[C@H]3O[C@@H]3c3ccc(CO)cc3)OC(=O)[C@H](CC(C)(C)C)NC(=O)C(C)(C)CNC2=O)cc1Cl` [Ex. 4, (3S,10R,16S,E)-10-(3-chloro-4-methoxybenzyl)-16-((S)-1-((2R,3R)-3-(4-(hydroxy-methyl)phenyl)oxiran-2-yl)ethyl)-6,6-dimethyl-3-neopentyl-1-oxa-4,8,11-triazacyclohexadec-13-ene-2,5,9,12-tetraone], for which the IC50 in the data set on HCT116 cells (setting [2]) was determined as 51 pM; in the data set on MDA-MB-231 cells (Homo sapiens, MDA-MB-231), 82 pM.

Regarding `COc1ccc(C[C@H]2NC(=O)/C=C/C[C@@H]([C@H](C)C3OC3c3ccc(CN)cc3)OC(=O)[C@H](CC(C)C)NC(=O)C(C)(C)C(C)NC2=O)cc1Cl` (stereo partly drawn) [Ex. 8, (3S,10R,16S,E)-16-((S)-1-(3-(4-(aminomethyl)phenyl)oxiran-2-yl)ethyl)-10-(3-chloro-4-methoxybenzyl)-3-isobutyl-6,6,7-trimethyl-1-oxa-4,8,11-triazacyclohexadec-13-ene-2,5,9,12-tetraone], the IC50 with HCT116 cells (setting [2]) was 518 pM; in the data set on MDA-MB-231 cells (Homo sapiens, MDA-MB-231) it was 564 pM.

For the compound `COc1ccc(C[C@H]2NC(=O)/C=C/C[C@@H]([C@H](C)[C@H]3O[C@@H]3c3ccc(CO)cc3)OC(=O)[C@H](CC(C)(C)C)NC(=O)C(C)(C)C(C)NC2=O)cc1Cl` (stereo partly drawn) [Ex. 11, (3S,10R,16S,E)-10-(3-chloro-4-methoxybenzyl)-16-((S)-1-((2R,3R)-3-(4-(hydroxymethyl)phenyl)oxiran-2-yl)ethyl)-6,6,7-trimethyl-3-neopentyl-1-oxa-4,8,11-triazacyclohexadec-13-ene-2,5,9,12-tetraone], in the data set with MDA-MB-231 cells (Homo sapiens, MDA-MB-231), the IC50 came to 102 pM.

Turning to `COc1ccc(C[C@H]2NC(=O)/C=C/C[C@@H]([C@H](C)C3OC3c3ccc(CO)cc3)OC(=O)[C@H](C)NC(=O)C(C)(C)CNC2=O)cc1Cl` (stereo partly drawn) [Ex. 15, (3S,10R,16S,E)-10-(3-chloro-4-methoxybenzyl)-16-((S)-1-(3-(4-(hydroxy-methyl)phenyl)oxiran-2-yl)ethyl)-3,6,6-trimethyl-1-oxa-4,8,11-triazacyclohexadec-13-ene-2,5,9,12-tetraone], in the data set on MDA-MB-231 cells (Homo sapiens, MDA-MB-231), the IC50 stood at 511 pM.

Consider `COc1ccc(C[C@H]2NC(=O)/C=C/C[C@@H]([C@H](C)C3OC3c3ccc(CO)cc3)OC(=O)[C@H](C(C)C)NC(=O)C(C)(C)CNC2=O)cc1Cl` (stereo partly drawn) [Ex. 16, (3S,10R,16S,E)-10-(3-chloro-4-methoxybenzyl)-16-((S)-1-(3-(4-(hydroxy-methyl)phenyl)oxiran-2-yl)ethyl)-6,6-dimethyl-3-isopropyl-1-oxa-4,8,11-triazacyclohexadec-13-ene-2,5,9,12-tetraone], for which, in the data set on MDA-MB-231 cells (Homo sapiens, MDA-MB-231), the IC50 worked out at 2820 pM.

On to `COc1ccc(C[C@H]2NC(=O)/C=C/C[C@@H]([C@H](C)C3OC3c3ccc(CO)cc3)OC(=O)[C@H](C(C)(C)C)NC(=O)C(C)(C)CNC2=O)cc1Cl` (stereo partly drawn) [Ex. 17, (3S,10R,16S,E)-10-(3-chloro-4-methoxybenzyl)-16-((S)-1-(3-(4-(hydroxy-methyl)phenyl)oxiran-2-yl)ethyl)-3-tert-butyl-6,6-dimethyl-1-oxa-4,8,11-triazacyclohexadec-13-ene-2,5,9,12-tetraone], for which, in the data set with MDA-MB-231 cells (Homo sapiens, MDA-MB-231), the IC50 was 856 pM.

For `COc1ccc(C[C@H]2NC(=O)/C=C/C[C@@H]([C@H](C)[C@H]3O[C@@H]3c3ccc(CN)cc3)OC(=O)[C@H](CC(C)C)NC(=O)C(C)(C)C(C)NC2=O)cc1Cl` (stereo partly drawn) [Ex. 18, (3S,10R,16S,E)-16-((S)-1-((2R,3R)-3-(4-(aminomethyl)phenyl)oxiran-2-yl)ethyl)-10-(3-chloro-4-methoxybenzyl)-3-isobutyl-6,6,7-trimethyl-1-oxa-4,8,11-triazacyclohexadec-13-ene-2,5,9,12-tetraone], the IC50 was determined as 179 pM in the data set with HCT116 cells (setting [2]) and 228 pM in the data set with MDA-MB-231 cells (Homo sapiens, MDA-MB-231).

On to “(3S,7S,10R,16S, E)-10-(3-chloro-4-methoxybenzyl)-16-((R)-1-((4-methoxy-benzyl)oxy)propan-2-yl)-6,6,7-trimethyl-3-neopentyl-1-oxa-4,8,11-triazacyclohexadec-13-ene-2,5,9,12-tetraone”, for which, in data set [1] (rcm bond), the ring closure, isolated yield was 61%.

Turning to “(3S,10R,16S, E)-10-(3-chloro-4-methoxybenzyl)-16-((R,E)-4-(4-(hydroxymethyl)-phenyl)but-3-en-2-yl)-6,6,7-trimethyl-3-neopentyl-1-oxa-4,8,11-triazacyclohexadec-13-ene-2,5,9,12-tetraone”, the ring closure, isolated yield in data set [1] (amide bond) came out at 54%.

For the compound “(3S,10R,16S, E)-10-(3-chloro-4-methoxybenzyl)-16-((R,E)-4-(4-(hydroxymethyl)-phenyl)but-3-en-2-yl)-6,6-dimethyl-3-neopentyl-1-oxa-4,8,11-triazacyclohexadec-13-ene-2,5,9,12-tetraone”, in data set [1] (amide bond), the ring closure, isolated yield is 70%.

“(3S,10R,16S, E)-16-((R,E)-4-(4-(azidomethyl)phenyl)but-3-en-2-yl)-10-(3-chloro-4-methoxybenzyl)-3-isobutyl-6,6,7-trimethyl-1-oxa-4,8,11-triazacyclohexadec-13-ene-2,5,9,12-tetraone” had a ring closure, isolated yield in data set [1] (amide bond) of 53%.

Turning to “(3S,10R,16S,E)-10-(3-chloro-4-methoxybenzyl)-6-(hydroxymethyl)-16-((R)-1-((4-methoxybenzyl)oxy)propan-2-yl)-6-methyl-3-neopentyl-1-oxa-4,8,11-triazacyclohexadec-13-ene-2,5,9,12-tetraone”, the ring closure, isolated yield in data set [1] (rcm bond) was 56% and 37%.

As for “(3S,10R,16S,E)-16-((R,E)-4-(4-(azidomethyl)phenyl)but-3-en-2-yl)-10-(3-chloro-4-methoxybenzyl)-3-isobutyl-6,6-dimethyl-1-oxa-4,8,11-triazacyclohexadec-13-ene-2,5,9,12-tetraone”, the ring closure, isolated yield in data set [1] (amide bond) was found to be 68%.

In the case of “(3S,10R,16S,E)-16-((S)-1-((2R,3R)-3-(4-(aminomethyl)phenyl)oxiran-2-yl)ethyl)-10-(3-chloro-4-methoxybenzyl)-6-methyl-3-neopentyl-6-(((triethylsilyl)oxy)methyl)-1-oxa-4, 8,11-triazacyclohexadec-13-ene-2,5,9,12-tetraone [Ex. 32]”, the IC50 with MDA-MB-231 cells was 1780 pM.

Broadly, the IC50 is the midpoint of a concentration-inhibition curve.
